Measurements published in patent publication US8598193B2, “Polycyclic agents for the treatment of respiratory syncytial virus infections” (Biota Scientific Management Pty Ltd., priority 2003, dated 2013).
Values after ≈ are worked out from the molar mass of the structure shown.

Tested on: RSV A2
Assay: RSV antiviral cytopathic effect (CPE) assay, MTT readout
Format: cell-based
Settings: human respiratory syncytial virus, HEp-2, 120 h, read-out: Activity Range (RSV A2 antiviral EC50), compounds of Table 2
Method: Method Q: RSV Antiviral Assay Protocol
Compounds of the invention were tested for their antiviral activity against respiratory syncytial virus. Cytopathic effect (CPE) assays were performed essentially as described in the literature (see for example Watanabe et al, 1. Virological Methods, 1994, 48, 257). Serial dilutions of the test compounds were made in assay medium. HEp2 cells (1.0×10^4 cells/well) were infected with RSV at a low multiplicity of infection (e.g. RSV A2 at an moi of 0.01) and 100 μL added to cultures assessing antiviral activity and cells without virus added to those assessing compound cytotoxicity. Assays were incubated for approximately 5 days at 37° C. in a 5% CO2 atmosphere. The extent of CPE was determined via metabolism of the vital dye 3-(4,5-dimethylthiaxol-2-yl)-2,5-diphenyltetrazolium bromide (MTT). A 3 mg/ml stock of MTT was made in assay medium and 100 μL added to each well, taking the final MTT concentration to […]. After 2 hours incubation at 37° C., the media-MTT solution was removed and 200 μL of isopropanol was added to dissolve the vital dye crystals. Plates were shaken and the absorbance read at 540 nm. The compound concentrations that inhibited CPE by 50% (EC50) and developed cytotoxicity (CC50) were calculated using an Excel curve fitting program.

SMILES | EC50 [µg/mL]
Cc1nnsc1C(=O)N1CCN2C(=O)c3ccccc3C21c1ccc(Cl)cc1 (stereo not drawn) [Compound 184] | < 0.1

Same assay, conditions: human respiratory syncytial virus, HEp-2, 120 h; RSV A2 in HEp2 cells, CPE assay, MTT, approx. 5 days; read-out: Activity Range (RSV A2 antiviral EC50), compounds of Table 2

EC50 [µg/mL] | SMILES
0.25 to 1 (≈ 0.6 to 2.4 µM) | COc1ccc(CC(=O)N2CCN3C(=O)c4ccccc4C23c2ccc(F)cc2)cc1 (stereo not drawn) [Compound 232]
0.1 to 0.25 (≈ 0.232 to 0.581 µM) | CCCOc1ccc(C23c4ccccc4C(=O)N2CCN3C(=O)c2ccc(F)cc2)cc1 (stereo not drawn) [Compound 311]
0.25 to 1 (≈ 0.618 to 2.47 µM) | Nc1ccc(C(=O)N2CCN3C(=O)c4ccccc4C23c2ccc(Cl)cc2)cn1 (stereo not drawn) [Compound 319]
0.25 to 1 (≈ 0.681 to 2.73 µM) | C=CCCC(=O)N1CCN2C(=O)c3ccccc3C12c1ccc(Cl)cc1 (stereo not drawn) [Compound 250]
0.1 to 0.25 (≈ 0.223 to 0.557 µM) | O=C(CSCc1ccccc1)N1CCN2C(=O)c3ccccc3C12c1ccc(Cl)cc1 (stereo not drawn) [Compound 217]
0.25 to 1 (≈ 0.49 to 1.96 µM) | O=C(Oc1ccc(C23c4ccccc4C(=O)N2CCN3C(=O)c2ccc(F)cc2)cc1)c1ccc(F)cc1 (stereo not drawn) [Compound 237]
0.1 to 0.25 (≈ 0.215 to 0.538 µM) | O=C(c1ccc(F)cc1)N1CCN2C(=O)c3ccccc3C12c1ccc(OCCCCl)cc1 (stereo not drawn) [Compound 261]
0.1 to 0.25 (≈ 0.26 to 0.649 µM) | CCC(=O)N1CCN2C(=O)c3ccccc3C12c1ccc(Br)cc1 (stereo not drawn) [Compound 236]
0.1 to 0.25 (≈ 0.209 to 0.524 µM) | COc1ccc(CC(=O)N2CCN3C(=O)c4ccccc4C23c2ccc(Br)cc2)cc1 (stereo not drawn) [Compound 235]
< 0.1 | O=C(c1csc(-c2cccnc2)n1)N1CCN2C(=O)c3ccccc3C12c1ccc(Cl)cc1 (stereo not drawn) [Compound 205]
0.25 to 1 (≈ 0.536 to 2.14 µM) | COc1ccc(CC(=O)N2CCN3C(=O)c4ccccc4C23c2ccc(C(F)(F)F)cc2)cc1 (stereo not drawn) [Compound 304]
0.25 to 1 (≈ 0.603 to 2.41 µM) | O=C1c2ccccc2C2(c3ccc(Cl)cc3)N1CCN2C(=O)C1Cc2ccccc21 (stereo not drawn) [Compound 218]
0.1 to 0.25 (≈ 0.256 to 0.639 µM) | O=C(c1ccc(F)nc1)N1CCN2C(=O)c3ccccc3C12c1ccc(F)cc1 (stereo not drawn) [Compound 314]
< 0.1 | O=C(c1ccc(F)cc1)N1CCN2C(=O)c3ccccc3C12c1ccc(Br)cc1 (stereo not drawn) [Compound 234]
0.1 to 0.25 (≈ 0.22 to 0.549 µM) | N#CCCCOc1ccc(C23c4ccccc4C(=O)N2CCN3C(=O)c2ccc(F)cc2)cc1 (stereo not drawn) [Compound 260]
< 0.1 | CCc1ccc(C23c4ccccc4C(=O)N2CCN3C(=O)c2ccc(F)cc2)cc1 (stereo not drawn) [Compound 191]
0.25 to 1 (≈ 0.585 to 2.34 µM) | COc1ccc(CNC(=O)N2CCN3C(=O)c4ccccc4C23c2ccc(C)cc2)cc1 (stereo not drawn) [Compound 179]
0.25 to 1 (≈ 0.522 to 2.09 µM) | O=C(c1ccc(F)cc1)N1CCN2C(=O)c3ccccc3C12c1ccc(OCCCCCl)cc1 (stereo not drawn) [Compound 264]

EC50 [µg/mL] | SMILES
0.1 to 0.25 (≈ 0.263 to 0.658 µM) | O=C(c1ccno1)N1CCN2C(=O)c3ccccc3C12c1ccc(Cl)cc1 (stereo not drawn) [Compound 183]
0.25 to 1 (≈ 0.572 to 2.29 µM) | O=C(CSc1ncccn1)N1CCN2C(=O)c3ccccc3C12c1ccc(Cl)cc1 (stereo not drawn) [Compound 303]
0.1 to 0.25 (≈ 0.253 to 0.632 µM) | O=C(c1cscn1)N1CCN2C(=O)c3ccccc3C12c1ccc(Cl)cc1 (stereo not drawn) [Compound 334]
0.25 to 1 (≈ 0.748 to 2.99 µM) | CCC(=O)N1CCN2C(=O)c3ccccc3C12c1ccc(CC)cc1 (stereo not drawn) [Compound 192]
< 0.1 | O=C(c1cccs1)N1CCN2C(=O)c3ccccc3C12c1ccc(Cl)cc1 (stereo not drawn) [Compound 224]
0.25 to 1 (≈ 0.567 to 2.27 µM) | CCCc1ccc(C23c4ccccc4C(=O)N2CCN3C(=O)Cc2ccc(OC)cc2)cc1 (stereo not drawn) [Compound 201]
< 0.1 | CCCc1ccc(C23c4ccccc4C(=O)N2CCN3C(=O)c2ccc(F)cc2)cc1 (stereo not drawn) [Compound 200]
0.25 to 1 (≈ 0.581 to 2.32 µM) | CC(C)Oc1ccc(C23c4ccccc4C(=O)N2CCN3C(=O)c2ccc(F)cc2)cc1 (stereo not drawn) [Compound 310]
0.1 to 0.25 (≈ 0.234 to 0.585 µM) | N#CCOc1ccc(C23c4ccccc4C(=O)N2CCN3C(=O)c2ccc(F)cc2)cc1 (stereo not drawn) [Compound 239]
0.25 to 1 (≈ 0.61 to 2.44 µM) | Cc1nc(C(=O)N2CCN3C(=O)c4ccccc4C23c2ccc(Cl)cc2)cs1 (stereo not drawn) [Compound 188]
0.25 to 1 (≈ 0.538 to 2.15 µM) | O=C1c2ccccc2C2(c3ccc(Cl)cc3)N1CCN2C(=O)c1nsc(Cl)c1Cl (stereo not drawn) [Compound 331]
0.1 to 0.25 (≈ 0.23 to 0.576 µM) | COc1ccc(NC(=O)N2CCN3C(=O)c4ccccc4C23c2ccc(Cl)cc2)cc1 (stereo not drawn) [Compound 85]
0.1 to 0.25 (≈ 0.229 to 0.574 µM) | O=C(NCc1ccc(F)cc1)N1CCN2C(=O)c3ccccc3C12c1ccc(Cl)cc1 (stereo not drawn) [Compound 87]
0.1 to 0.25 (≈ 0.222 to 0.554 µM) | O=C(c1ccc(F)cc1)N1CCN2C(=O)c3ccccc3C12c1ccc(OCCCl)cc1 (stereo not drawn) [Compound 265]
0.1 to 0.25 (≈ 0.253 to 0.633 µM) | O=C(c1ccsc1)N1CCN2C(=O)c3ccccc3C12c1ccc(Cl)cc1 (stereo not drawn) [Compound 327]
0.25 to 1 (≈ 0.532 to 2.13 µM) | O=C(CCCc1c[nH]c2ccccc12)N1CCN2C(=O)c3ccccc3C12c1ccc(Cl)cc1 (stereo not drawn) [Compound 228]
0.1 to 0.25 (≈ 0.246 to 0.614 µM) | O=C(c1ccc(F)cc1)N1CCN2C(=O)c3ccccc3C12c1cccc(Cl)c1 (stereo not drawn) [Compound 144]

Same assay, conditions: human respiratory syncytial virus, HEp-2, 120 h; RSV A2 in HEp2 cells, CPE assay, MTT, approx. 5 days; read-out: Activity Range (RSV A2 antiviral EC50), compounds of Table 3

EC50 [µg/mL] | SMILES
< 0.1 | O=C1c2ccncc2C2(c3ccc(Cl)cc3)N1CCN2C(=O)c1nsc(Cl)c1Cl (stereo not drawn) [Compound 461]
0.25 to 1 (≈ 0.593 to 2.37 µM) | CCn1nc(C)cc1C(=O)N1CCN2C(=O)c3ccncc3C21c1ccc(Cl)cc1 (stereo not drawn) [Compound 422]
0.1 to 0.25 (≈ 0.213 to 0.532 µM) | O=C(c1cncc(Br)c1)N1CCN2C(=O)c3ccncc3C12c1ccc(Cl)cc1 (stereo not drawn) [Compound 405]
< 0.1 | O=C1c2ccncc2C2(c3ccc(Cl)cc3)N1CCN2C(=O)c1ncoc1-c1ccccc1 (stereo not drawn) [Compound 463]
0.25 to 1 (≈ 0.613 to 2.45 µM) | Cc1cc(C(=O)N2CCN3C(=O)c4ccncc4C32c2ccc(Cl)cc2)n(C)n1 (stereo not drawn) [Compound 420]
< 0.1 | O=C(c1csc(-c2ccc[n+]([O-])c2)n1)N1CCN2C(=O)c3cc[n+]([O-])cc3C12c1ccc(Cl)cc1 (stereo not drawn) [Compound 482]
< 0.1 | O=C(c1ccsc1)N1CCN2C(=O)c3ccncc3C12c1ccc(Cl)cc1 (stereo not drawn) [Compound 430]
0.25 to 1 (≈ 0.507 to 2.03 µM) | CCCCCSc1ncccc1C(=O)N1CCN2C(=O)c3ccncc3C21c1ccc(Cl)cc1 (stereo not drawn) [Compound 399]
0.1 to 0.25 (≈ 0.263 to 0.657 µM) | O=C(c1ccno1)N1CCN2C(=O)c3ccncc3C12c1ccc(Cl)cc1 (stereo not drawn) [Compound 448]
0.25 to 1 (≈ 0.527 to 2.11 µM) | O=C(c1csc(-c2ccncc2)n1)N1CCN2C(=O)c3ccncc3C12c1ccc(Cl)cc1 (stereo not drawn) [Compound 457]
0.25 to 1 (≈ 0.568 to 2.27 µM) | CC(C)c1nnsc1C(=O)N1CCN2C(=O)c3ccncc3C21c1ccc(Cl)cc1 (stereo not drawn) [Compound 464]
< 0.1 | Cc1nonc1C(=O)N1CCN2C(=O)c3ccncc3C21c1ccc(Cl)cc1 (stereo not drawn) [Compound 484]
0.1 to 0.25 (≈ 0.225 to 0.563 µM) | Cc1csc(C(=O)N2CCN3C(=O)c4ccncc4C32c2ccc(Cl)cc2)c1Cl (stereo not drawn) [Compound 450]
0.25 to 1 (≈ 0.509 to 2.04 µM) | O=C(c1cncc(C#Cc2ccccc2)c1)N1CCN2C(=O)c3ccncc3C12c1ccc(Cl)cc1 (stereo not drawn) [Compound 406]
< 0.1 | Cn1cc(C(=O)N2CCN3C(=O)c4ccncc4C32c2ccc(Cl)cc2)c(C(F)(F)F)n1 (stereo not drawn) [Compound 467]
0.25 to 1 (≈ 0.613 to 2.45 µM) | Cc1cc(C(=O)N2CCN3C(=O)c4ccncc4C23c2ccc(Cl)cc2)oc1C (stereo not drawn) [Compound 415]
< 0.1 | O=C(c1ccco1)N1CCN2C(=O)c3ccncc3C12c1ccc(Cl)cc1 (stereo not drawn) [Compound 413]
< 0.1 | Cc1cc(C(=O)N2CCN3C(=O)c4ccncc4C32c2ccc(Cl)cc2)c(C)o1 (stereo not drawn) [Compound 412]
0.1 to 0.25 (≈ 0.211 to 0.529 µM) | O=C(c1cncc(-c2cccs2)c1)N1CCN2C(=O)c3ccncc3C12c1ccc(Cl)cc1 (stereo not drawn) [Compound 409]
< 0.1 | O=C(c1ccoc1)N1CCN2C(=O)c3ccncc3C12c1ccc(Cl)cc1 (stereo not drawn) [Compound 414]
< 0.1 | O=C(c1cccc(Cl)n1)N1CCN2C(=O)c3ccncc3C12c1ccc(Cl)cc1 (stereo not drawn) [Compound 453]
< 0.1 | O=C1c2ccncc2C2(c3ccc(Cl)cc3)N1CCN2C(=O)c1sccc1Cl (stereo not drawn) [Compound 442]

Second part, the compound before the results:

SMILES | EC50 [µg/mL]
O=C(c1ccc(F)nc1)N1CCN2C(=O)c3cnccc3C12c1ccc(Br)cc1 (stereo not drawn) [Compound 367] | 0.25 to 1 (≈ 0.552 to 2.21 µM)
O=C(c1ccc(F)nc1)N1CCN2C(=O)c3ccncc3C12c1ccc(Cl)cc1 (stereo not drawn) [Compound 368] | < 0.1
CCc1ccc(C23c4cnccc4C(=O)N2CCN3C(=O)Cc2ccc(OC)cc2)cc1 (stereo not drawn) [Compound 371] | 0.25 to 1 (≈ 0.585 to 2.34 µM)
O=C(c1csc(-c2cccnc2)n1)N1CCN2C(=O)c3ccncc3C12c1ccc(Cl)cc1 (stereo not drawn) [Compound 381] | < 0.1
Cc1noc(C)c1C(=O)N1CCN2C(=O)c3ccncc3C21c1ccc(Cl)cc1 (stereo not drawn) [Compound 392] | 0.1 to 0.25 (≈ 0.245 to 0.611 µM)
Cc1oc(-c2ccccc2)cc1C(=O)N1CCN2C(=O)c3ccncc3C21c1ccc(Cl)cc1 (stereo not drawn) [Compound 394] | 0.25 to 1 (≈ 0.532 to 2.13 µM)
Cc1nn(-c2ccccc2)nc1C(=O)N1CCN2C(=O)c3ccncc3C21c1ccc(Cl)cc1 (stereo not drawn) [Compound 387] | 0.1 to 0.25 (≈ 0.212 to 0.531 µM)
CCc1ccc(C23c4cnccc4C(=O)N2CCN3C(=O)c2ccc(F)cc2)cc1 (stereo not drawn) [Compound 361] | 0.1 to 0.25 (≈ 0.249 to 0.623 µM)
O=C(c1ccc(F)cc1)N1CCN2C(=O)c3ccncc3C12c1ccc(Br)cc1 (stereo not drawn) [Compound 358] | 0.1 to 0.25 (≈ 0.221 to 0.553 µM)
Cc1cc(C(=O)N2CCN3C(=O)c4ccncc4C32c2ccc(Cl)cc2)c(C(F)(F)F)o1 (stereo not drawn) [Compound 385] | < 0.1
COc1ccc(CC(=O)N2CCN3C(=O)c4ccncc4C23c2ccc(Cl)cc2)cc1 (stereo not drawn) [Compound 351] | 0.25 to 1 (≈ 0.576 to 2.3 µM)
O=C1c2ccncc2C2(c3ccc(Cl)cc3)N1CCN2C(=O)c1csc2ccccc12 (stereo not drawn) [Compound 379] | 0.1 to 0.25 (≈ 0.224 to 0.561 µM)
O=C(c1ccc(F)nc1)N1CCN2C(=O)c3cccnc3C12c1ccc(Cl)cc1 (stereo not drawn) [Compound 369] | 0.1 to 0.25 (≈ 0.245 to 0.612 µM)
O=C(c1ccc(F)nc1)N1CCN2C(=O)c3ccncc3C12c1ccc(Br)cc1 (stereo not drawn) [Compound 366] | < 0.1
